Source: US20200246380A1, “Pharmaceutical Composition for Preventing or Treating Autoimmune Disease, and Method for Producing Same” (priority 2017, published 2020)

Columns and labels:
Format in all cases: cell-based, C57BL/6 mice
[1] = test system: plasmacytoid dendritic cells; assay: IL-10 secretion from pDC induced with various toll-like receptor agonists, ELISA (Example 3); conditions: pDC stimulated with ODN1826 (1 μg/ml), 24 hours; vs non-treatment
Method: Ligands listed in Table 2 were used as the toll-like receptor agonist. […] The separated cells (5×10^5 cells/ml) were inoculated into a 48 well plate. ODN1826 (1 μg/ml) was applied thereto and the cells were cultured for 24 hours. Then, supernatant was separated. The secretion pattern of the immunosuppressive cytokine IL-10 was then checked by ELISA (enzyme linked immunosorbent assay). In this connection, in order to check the effect from the treatment using the toll-like receptor agonist, the case in which the toll-like receptor agonist was not applied thereto during the differentiation of the immature dendritic cells is shown as Comparative Example (non).

[2] = test system: immature dendritic cells; assay: Differentiation of immature dendritic cells into plasmacytoid dendritic cells with toll-like receptor agonist (Example 1); conditions: Pam3 100 to 500 ng/ml on third day of Flt3L differentiation; treatment vs non-treatment
Method: Specifically, thigh bone marrow samples were collected from C57BL/6 mice using bone marrow collecting syringes. The collected bone marrow was washed with phosphate buffered saline (PBS), and red blood cells were removed therefrom using ammonium chloride. Separated cells (3×10^6 cells/well) were inoculated in a 6-well plate. Then, 1 ml of RPMI 1640 containing 10% FBS (fetal bovine serum), 2 mM L-glutamine, 100 U/ml penicillin/streptomycin, 50 μM mercaptoethanol, 0.1 mM non-essential amino acid, 1 mM sodium pyruvate and 250 ng/ml FLT3L was added thereto to initiate culture and differentiation of the cells. On the third day after the start of differentiation, Pam3 was applied thereto at a concentration of 100 to 500 ng/ml. On 5 days from the start of differentiation, 1 ml of the RPMI 1640 was further supplemented thereto. The cells were cultured for 8 days. […] Further, in the case (TLRs-pDC) when the immature dendritic cells were treated with the toll-like receptor agonist, the ratio of the number of plasmacytoid dendritic cells obtained after the eighth day to the number of the initial immature dendritic cells was measured. […]

[3] = test system: plasmacytoid dendritic cells; assay: Cytokine secretion from pDC according to treatment time of toll-like receptor agonist, ELISA (Example 4); conditions: agonist applied at start of differentiation (0 day treatment) or 3 days thereafter; ODN1826 24 hours; vs no-treatment
Description: Differentiation into the plasmacytoid dendritic cells was induced by the same method as in Example 1 in order to check the immune tolerance inducing effect of the toll-like receptor agonist according to the treatment time point. Further, the toll-like receptor agonists were applied at the start time of the differentiation (0-day treatment) and were applied on 3 days after the start of differentiation (3 day treatment). After the total 8 days culturing, the plasmacytoid dendritic cells were isolated therefrom at a purity equal to or greater than 85% using a plasmacytoid dendritic cell separation kit (Miltenyi Biotec, Auburn, Calif.) and a magnetic cell sorting system (Vario MACS: Miltenyi Biotec, Auburn, Calif.). The separated cells (5×10^5 cells/ml) were inoculated into a 48 well plate. ODN1826 (1 μg/ml) was applied thereto and the cells were cultured for 24 hours. Then, supernatant was separated. The secretion pattern of the cytokine was then checked by ELISA (enzyme linked immunosorbent assay). In this connection, in order to check the effect from the treatment using the toll-like receptor agonist, the case in which the toll-like receptor agonist was not applied thereto during the differentiation of the immature dendritic cells is shown as Comparative Example (no-treatment, non).

Compound: CC(C)Cn1cnc2c(N)nc3ccccc3c21 [TLR7 agonist, Imiquimod]
- expression level of IL-10 from pDC differentiated via treatment with the agonist [1]: significantly increased

Compound: LPS [TLR4 agonist]
- expression level of IL-10 from pDC differentiated via treatment with the agonist [1]: significantly increased

Compound: Pam3 [TLR2 agonist]
- differentiation efficiency into plasmacytoid dendritic cells [2]: no difference
- expression level of IL-10 from pDC differentiated via treatment with the agonist [1]: significantly increased
- expression level of IFN-α [3]: inhibited
- expression level of IFN-β [3]: inhibited
- expression level of IL-10 [3]: significantly increased
- expression level of IL-12p70 [3]: inhibited
- expression level of TNF-α [3]: inhibited
